Test results as given in patent US20220380347A1, “INHIBITORS OF CYSTEINE PROTEASES AND METHODS OF USE THEREOF” (Pardes Biosciences, Inc., priority 2020, published 2022).
Read-outs that look alike come from different tables or passages of the source.

Columns and labels:
[1] = target: 229E Mpro (Human coronavirus 229E, UniProt P0C6X1); assay: 229E Mpro enzymatic assay (standard methods, SARS-CoV2 Mpro assay given as exemplary); type: biochemical, human coronavirus (HCov) 229E
Procedure, shortened: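 IC50 for 229E Mpro by standard methods; exemplary SARS-CoV-2 protocol used C-His6-tagged Mpro from E. coli, 25 nM enzyme, 25 μM substrate (Km 13.5 μM), in Tris-HCl pH 7.3, NaCl, EDTA, TCEP, 0.1% BSA. Inhibition normalised to no-compound and full-effect controls; four-parameter fit.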

[2] = target: COVID-19 (nCoV-2019, SARS-CoV2) Mpro (Severe acute respiratory syndrome coronavirus 2, UniProt P0DTD1); assay: COVID-19 (nCoV-2019, SARS-CoV2) Mpro enzymatic assay; type: biochemical; details: 25 nM Mpro, 25 μM substrate; read-out: COVID-19 Mpro IC50
[3] = test system: HCoV 229E; assay: HCoV 229E cytopathic effect (CPE) assay, CellTiter Glo; type: cell-based, human coronavirus (HCov) 229E; details: protection of virus-induced CPE
Procedure: Example 238: Evaluation of antiviral activity of compounds against human coronavirus (HCov) 229E and OC43 in the cytopathic effect (CPE) assays
Compounds were assayed using standard methods against multiple coronaviral strains, including HCoV 229E and OC43 strains. The antiviral activity of compounds was calculated based on the protection of the virus-induced CPE at each concentration normalized by the virus control.
Cytopathic effect (CPE) was measured by CellTiter Glo following the manufacturer's manual. The antiviral activity of compounds was calculated based on the protection of the virus-induced CPE at each concentration normalized by the virus control.
Cell viability was measured with CellTiter Glo.

[4] = test system: HCov OC43; assay: HCoV OC43 cytopathic effect (CPE) assay, CellTiter Glo; type: cell-based, human coronavirus (HCov) OC43
[5] = Betacoronavirus 1, OC43, read-out: OC43 IC50 (uM) MEDIAN, median
[6] = read-out: OC43 IC50 (uM) MEDIAN, median

229E Mpro, sequence (P0C6X1 2966-3267): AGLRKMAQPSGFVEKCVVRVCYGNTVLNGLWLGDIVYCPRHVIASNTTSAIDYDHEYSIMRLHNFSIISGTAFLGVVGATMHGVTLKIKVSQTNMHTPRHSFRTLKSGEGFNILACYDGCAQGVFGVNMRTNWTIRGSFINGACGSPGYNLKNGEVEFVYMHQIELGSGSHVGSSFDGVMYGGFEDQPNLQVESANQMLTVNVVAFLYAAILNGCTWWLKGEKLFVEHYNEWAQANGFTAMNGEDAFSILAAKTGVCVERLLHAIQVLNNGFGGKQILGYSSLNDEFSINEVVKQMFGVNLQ

SMILES	EC50 ([1]; 229E Mpro EC50) [µM]	IC50 [2] [µM]	EC50 ([3]; unidentified human coronavirus) [µM]	IC50 [4, 5] [µM]	IC50 [4, 6] [µM]	other results
CC(C)(C)c1ccc(N(C(=O)[C@H]2C[C@@H](O)CN2C#N)C(C(=O)NC2CCCC2)c2cccnc2)cc1 (single isomer, unassigned) [595 Isomer 1]	< 2	2 to 10	2 to 10	2 to 10		
CC(C)(C)c1ccc(N(C(=O)[C@H]2C[C@@H](O)CN2C#N)C(C(=O)NC2CCOCC2)c2cccnc2)cc1 (single isomer, unassigned) [619 Isomer 1]	< 2	< 2	2 to 10	< 2		
CC(C)(C)c1ccc(N(C(=O)[C@H]2C[C@@H](O)CN2C#N)C(C(=O)NC2CCOCC2)c2cccnc2)cc1 (single isomer, unassigned) [619 Isomer 2]		2 to 10			2 to 10	EC50 ([1]; read-out: 229E Mpro EC50): < 2 µM; EC50 [3]: < 2 µM
COCCNC(=O)C(c1cccnc1)N(C(=O)[C@H]1C[C@@H](O)CN1C#N)c1ccc(C(C)(C)C)cc1 (single isomer, unassigned) [627 Isomer 1]	< 2	< 2	2 to 10		< 2	
COCCNC(=O)C(c1cccnc1)N(C(=O)[C@H]1C[C@@H](O)CN1C#N)c1ccc(C(C)(C)C)cc1 (single isomer, unassigned) [627 Isomer 2]		2 to 10			10 to 30	EC50 ([1]; read-out: 229E Mpro EC50): < 2 µM; EC50 [3]: 2 to 10 µM
COCCCNC(=O)C(c1cccnc1)N(C(=O)[C@H]1C[C@@H](O)CN1C#N)c1ccc(C(C)(C)C)cc1 (single isomer, unassigned) [647 Isomer 2]		< 2	2 to 10		2 to 10	EC50 ([1]; read-out: 229E Mpro EC50): < 2 µM
Cn1cnnc1C(C(=O)NC1CCCCC1)N(C(=O)[C@H]1C[C@@H](O)CN1C#N)c1ccc(C(C)(C)C)cc1 (single isomer, unassigned) [659 Isomer 1]	< 2	2 to 10	< 2		10 to 30	
Cn1cnnc1C(C(=O)NC1CCCCC1)N(C(=O)[C@H]1C[C@@H](O)CN1C#N)c1ccc(C(C)(C)C)cc1 (single isomer, unassigned) [659 Isomer 2]		2 to 10			2 to 10	EC50 ([1]; read-out: 229E Mpro EC50): < 2 µM; EC50 [3]: 2 to 10 µM
N#CN1C[C@H](O)C[C@@H]1C(=O)N(c1ccc(C2CC2)cc1)C(C(=O)NC1CCCCC1)c1cccnc1 (single isomer, unassigned) [723 Isomer 1]	< 2	< 2	< 2	< 2		
N#CN1C[C@H](O)C[C@@H]1C(=O)N(c1ccc(C2CC2)cc1)C(C(=O)NC1CCCCC1)c1cccnc1 (single isomer, unassigned) [723 Isomer 2]	2 to 10	10 to 30			2 to 10	EC50 [3]: 2 to 10 µM
CC(C)(C)c1ccc(N(C(=O)[C@H]2CC(=O)CN2C#N)C(C(=O)NC2CCCCC2)c2cccnc2)cc1 (single isomer, unassigned) [Compound 278 Isomer 2]		2 to 10	2 to 10		10 to 30	EC50 ([1]; read-out: 229E Mpro EC50): < 2 µM
CC1(O)C[C@H](C(=O)N(c2ccc(C(C)(C)C)cc2)C(C(=O)NC2CCCCC2)c2cccnc2)N(C#N)C1 (single isomer, unassigned) [Compound 284 Isomer 2]	< 2	< 2	< 2			IC50 ([4]; read-out: OC43 IC50 (uM) MEDIAN, median, listed as 284 Isomer 2): < 2 µM
CO[C@@H]1C[C@H](C(=O)N(c2ccc(C(C)(C)C)cc2)C(C(=O)NC2CCCCC2)c2cccnc2)N(C#N)C1 (single isomer, unassigned) [Compound 292 Isomer 2]		< 2	< 2		< 2	EC50 ([1]; read-out: 229E Mpro EC50): < 2 µM
CO[C@H]1C[C@H](C(=O)N(c2ccc(C(C)(C)C)cc2)C(C(=O)NC2CCCCC2)c2cccnc2)N(C#N)C1 (single isomer, unassigned) [Compound 293 Isomer 1]	< 2	< 2	< 2			IC50 ([4]; read-out: OC43 IC50 (uM) MEDIAN, median, listed as 293 Isomer 1): < 2 µM
CC(C)(C)O[C@@H]1C[C@H](C(=O)N(c2ccc(C(C)(C)C)cc2)C(C(=O)NC2CCCCC2)c2cccnc2)N(C#N)C1 (single isomer, unassigned) [Compound 299 Isomer 2]	< 2	< 2	< 2			IC50 ([4]; read-out: OC43 IC50 (uM) MEDIAN, median, listed as 299 Isomer 2): 2 to 10 µM
CC(C)(C)c1ccc(N(C(=O)[C@H]2C[C@H](Oc3ccccc3)CN2C#N)C(C(=O)NC2CCCCC2)c2cccnc2)cc1 (single isomer, unassigned) [Compound 308 Isomer 2]	< 2	< 2	< 2		> 30	
CC(C)(C)c1ccc(N(C(=O)[C@H]2CCCN2C#N)C(C(=O)NCC2COC2)c2cccnc2)cc1 (single isomer, unassigned) [Compound 419 Isomer 1]	< 2	< 2	2 to 10	2 to 10		
COC(C)(C)CNC(=O)C(c1cccnc1)N(C(=O)[C@H]1CCCN1C#N)c1ccc(C(C)(C)C)cc1 (single isomer, unassigned) [Compound 427 Isomer 2]	< 2	< 2	< 2			IC50 ([4]; read-out: OC43 IC50 (uM) MEDIAN, median, listed as 427 Isomer 2): 2 to 10 µM
CN(C)CCNC(=O)C(c1cccnc1)N(C(=O)[C@H]1CCCN1C#N)c1ccc(C(C)(C)C)cc1 (single isomer, unassigned) [Compound 435 Isomer 1]	< 2	2 to 10	2 to 10			IC50 ([4]; read-out: OC43 IC50 (uM) MEDIAN, median, listed as 435 Isomer 1): 2 to 10 µM
Cc1c[nH]c2cc(N(C(=O)[C@H]3C[C@@H](O)CN3C#N)C(C(=O)NC3CCC(F)(F)CC3)c3cncc(F)c3)ccc12 (single isomer, unassigned) [Compound 747b Isomer 1]	< 2	< 2	2 to 10	< 2		
N#CN1C[C@H](O)C[C@@H]1C(=O)N(c1ccc2c(c1)NCCC2)C(C(=O)NC1CCCCC1)c1cccnc1 (single isomer, unassigned) [Compound 755 Isomer 1]	< 2	< 2	< 2	< 2		
N#CN1C[C@H](O)C[C@@H]1C(=O)N(c1ccc2c(c1)NCCC2)C(C(=O)NC1CCCCC1)c1cccnc1 (single isomer, unassigned) [Compound 755 Isomer 2]	2 to 10	10 to 30			2 to 10	EC50 [3]: < 2 µM
N#CN1C[C@H](O)C[C@@H]1C(=O)N(c1ccc(C2CC2)cc1F)C(C(=O)NC1CCCCC1)c1cccnc1 (single isomer, unassigned) [Compound 763 Isomer 2]	2 to 10	10 to 30	< 2		2 to 10	
N#CN1C[C@H](O)C[C@@H]1C(=O)N(c1ccc(C2CC2)c(F)c1)C(C(=O)NC1CCCCC1)c1cccnc1 (single isomer, unassigned) [Compound 767 Isomer 1]	< 2	< 2	2 to 10	< 2		
N#CN1C[C@H](O)C[C@@H]1C(=O)N(c1ccc(C(F)(C(F)(F)F)C(F)(F)F)cc1)C(C(=O)NC1CCCCC1)c1cccnc1 (single isomer, unassigned) [Compound 779 Isomer 1]	< 2	< 2	2 to 10	< 2		
